Experimental data from US20080300231A1, “Antibacterial amide macrocycles VI” (priority 2005, published 2008).

Legend:
[1] = target: S. aureus 133 Translation; assay: S. aureus in vitro transcription-translation assay (firefly luciferase, S30 extract); type: biochemical; details: 50% inhibition of the translation of firefly luciferase
Excerpt: In Vitro Transcription-Translation with S. aureus Extracts
Construction of an S. aureus luciferase Reporter Plasmid
In order to construct a reporter plasmid which can be used in an in vitro transcription-translation assay from S. aureus the plasmid pBESTluc (Promega Corporation, USA) is used. The E. coli tac promoter present in this plasmid in front of the firefly luciferase is replaced with the capA1 promoter with appropriate Shine-Dalgarno sequence from S. aureus. The primers CAPFor 5′-CGGCCAAGCTTACTC-[…] […]-3′ and CAPRev 5′-[…]-3′ are used for this. The primer CAPFor contains the capA1 promoter, the ribosome binding site and the 5′ region of the luciferase gene. After PCR using pBESTluc as template it is possible to isolate a PCR product which contains the firefly luciferase gene with the fused capA1 promoter. This is, after restriction with ClaI and HindIII, ligated into the vector pBESTluc which has likewise been digested with ClaI and HindIII. The resulting plasmid p1a can be replicated in E. coli and can be used as template in the S. aureus in vitro transcription-translation test.
Preparation of S30 Extracts from S. aureus
Six litres of BHI medium are inoculated with a 250 ml overnight culture of an S. aureus strain and allowed to grow at 37° C. until the OD600 nm is 2-4. The cells are harvested by centrifugation and washed in 500 ml of cold buffer A (10 mM Tris acetate, pH 8.0, 14 mM magnesium acetate, 1 mM DTT, 1 M KCl). After renewed centrifugation, the cells are washed in 250 ml of cold buffer A with 50 mM KCl, and the resulting pellets are frozen at −20° C. for 60 min. The pellets are thawed on ice in 30 to 60 min and taken up to a total volume of 99 ml in buffer B (10 mM Tris acetate, pH 8.0, 20 mM magnesium acetate, 1 mM DTT, 50 mM KCl). 1.5 ml portions of lysostaphin (0.8 mg/ml) in buffer B are introduced into 3 precooled centrifuge cups and mixed with 33 ml of the cell suspension each. The samples are incubated at 37° C., shaking occasionally, for 45 to 60 min, before 150 μl of a 0.5 M DTT solution are added. The lysed cells are centrifuged at 30 000×g and 4° C. for 30 min. The cell pellet is taken up in buffer B and then centrifuged again under the same conditions, and the collected supernatants are combined. The supernatants are centrifuged again under the same conditions, and 0.25 volumes of buffer C (670 mM Tris acetate, pH 8.0, 20 mM magnesium acetate, 7 mM Na3 phosphoenolpyruvate, 7 mM DTT, 5.5 mM ATP, 70 μM amino acids (complete from Promega), 75 μg of pyruvate kinase (Sigma, Germany))/ml are added to the upper ⅔ of the supernatant. The samples are incubated at 37° C. for 30 min. The supernatants are dialysed against 2 l of dialysis buffer (10 mM Tris acetate, pH 8.0, 14 mM magnesium acetate, 1 mM DTT, 60 mM potassium acetate) in a dialysis tube with a 3500 Da cut-off with one buffer change at 4° C. overnight. The dialysate is concentrated to a protein concentration of about 10 mg/ml by covering the dialysis tube with cold PEG 8000 powder (Sigma, Germany) at 4° C. The S30 extracts can be stored in aliquots at −70° C.
Determination of the IC50 in the S. aureus In Vitro Transcription-Translation Assay
The inhibition of protein biosynthesis of the compounds can be shown in an in vitro transcription-translation assay. The assay is based on the cell-free transcription and translation of firefly luciferase using the reporter plasmid p1a as template and cell-free S30 extracts obtained from S. aureus. The activity of the resulting luciferase can be detected by luminescence measurement.
The amount of S30 extract or plasmid p1a to be employed must be tested anew for each preparation in order to ensure an optimal concentration in the assay. 3 μl of the substance to be tested, dissolved in 5% DMSO, are provided in an MTP. Then […] of a suitably concentrated plasmid solution p1a are added. […]

S. aureus RN4220 = assay: Resistance rate of S. aureus RN4220 on biphenomycin B agar plate; type: cell-based; details: agar plate containing 2 μg/ml biphenomycin B (10×MIC), 37° C. overnight
Protocol: The S. aureus strain RN4220Bi^R is isolated in vitro. […] Whereas about 1×10^7 cells grow on the antibiotic-free plate, about 100 colonies grow on the antibiotic-containing plate, corresponding to a resistance rate of 1×10^5. Some of the colonies grown on the antibiotic-containing plate are tested for the biphenomycin B MIC. One colony with a MIC of >50 μM is selected for further use, and the strain is referred to as RN4220Bi^R.

## NC[C@H](O)C[C@@H]1NC(=O)[C@@H](N)Cc2cc(ccc2O)-c2ccc(O)c(c2)C[C@@H](C(=O)O)NC1=O [Biphenomycin B, biphenomycin B, reference compound]
[1]
  IC50: 1500 nM
S. aureus RN4220
  resistance rate: 1×10^5
